Consider 2 compounds from patent US4335112A, “Method of treating mites in poultry” (priority 1981, dated 1982).

Where a SMILES comes first, the peptide text is derived from it. Bridges are numbered along the chain shown (N, C = ends). [ ]: non-standard residue; d: D form. The star is where a group is joined. Ileψ(thiazoline)Cys = CC[C@H](C)[C@H](N)C1=N[C@H](C(=O)*)CS1; dOrn = NCCC[C@@H](N)C(=O)O

Assay [1] relates to mites. Kind of assay: Treatment of mite-infested chicken flock with zinc bacitracin in the feed. Format: in vivo. An excerpt: The following example is offered to illustrate the manner in which the zinc bacitracin is used and the efficiency which it has realized. A flock of 10,000 Babcock chickens of an approximate age of 9-10 months, weighing approximately 3 pounds became heavily infested with mites. […] Ten months later the same flock again became mite infested.

In assay [2] the test system is mites. Kind of assay: Control and elimination of mites in poultry flocks by bacitracin feed supplement (general finding). Format: in vivo. An excerpt:
This unique use is for the control and elimination of mites in poultry flocks.

As for zinc bacitracin, the “disappearance of mites from infested flock” value in the assay on mites [1] (flock of 10,000 Babcock chickens, 9-10 months old, heavily infested, 100 grams per ton in normal feed for seven days) was “substantially all of the mites had disappeared”. Further, the “effect of same treatment on re-infestation” value with mites [1] (same flock again mite infested ten months later, same treatment (100 grams per ton feed, seven days)) is recorded as “same effective results”.
Take `CC[C@H](C)[C@H](N)C1=N[C@H](C(=O)N[C@@H](CC(C)C)C(=O)N[C@H](CCC(=O)O)C(=O)N[C@H](C(=O)N[C@H]2CCCCNC(=O)[C@H](CC(N)=O)NC(=O)[C@@H](CC(=O)O)NC(=O)[C@H](Cc3cnc[nH]3)NC(=O)[C@@H](Cc3ccccc3)NC(=O)[C@H]([C@@H](C)CC)NC(=O)[C@@H](CCCN)NC2=O)[C@@H](C)CC)CS1` [bacitracin] ({Ileψ(thiazoline)Cys}-L[dE]IK[dOrn]I[dF]H[dD]N; lactam 4-C): in the assay on mites [2] (applicant's discovery, no details), the toxicity to mites result was “toxic to mites”. Besides, in the assay with mites [2] (between 100 and 200 grams of bacitracin per ton of poultry grain for several days), the “elimination of mites from infested poultry flock” value is recorded as “substantially eliminate mites”.
